Results reported in patent publication US20240376084A1, “INHIBITORS OF ALPHA-HEMOLYSIN OF STAPHYLOCOCCUS AUREUS” (Helmholtz-Zentrum Fur Infektionsforschung GmbH, priority 2021, published 2024).

What was measured:
[1] = biological target: hemolysin alpha from Staphylococcus aureus (Staphylococcus aureus, UniProt P09616); assay: cell-based
[2] = biological target: S. aureus Alpha hemolysin (Staphylococcus aureus, UniProt P09616); assay: cell-based
Chain of S. aureus Alpha hemolysin (P09616 27-319 limits assumed): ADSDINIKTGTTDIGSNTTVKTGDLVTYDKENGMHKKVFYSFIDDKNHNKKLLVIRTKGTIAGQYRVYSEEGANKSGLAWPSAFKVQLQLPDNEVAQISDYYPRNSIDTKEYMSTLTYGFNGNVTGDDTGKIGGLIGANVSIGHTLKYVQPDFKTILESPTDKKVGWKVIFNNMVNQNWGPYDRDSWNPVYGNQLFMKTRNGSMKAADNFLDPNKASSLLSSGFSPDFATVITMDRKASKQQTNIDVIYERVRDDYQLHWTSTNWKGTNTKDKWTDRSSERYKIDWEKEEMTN

Chain of hemolysin alpha from Staphylococcus aureus (P09616 27-319 limits assumed): as above

| SMILES | EC50 [1] | EC50 ([2]; A549-LDH Assay activity) | IC50 [1] | EC50 ([2]; LDH Assay EC50) |
| --- | --- | --- | --- | --- |
| Cc1cc2[nH]c(=O)c(=O)[nH]c2cc1S(=O)(=O)Nc1ccc(-c2cccc(Br)c2)c(Cl)c1 [Compound 310, N-[4-(3-bromophenyl)-3-chloro-phenyl]-7-methyl-2,3-dioxo-1,4-dihydroquinoxaline-6-sulfonamide] | < 30 nM | 100 to 1000 nM |  |  |
| O=c1[nH]c2cc(Cl)c(S(=O)(=O)Nc3ccc(-c4ccc5c(c4)NCC5)c(Cl)c3)cc2[nH]c1=O [Compound 46, 7-chloro-N-(3-chloro-4-(indolin-6-yl)phenyl)-2,3-dioxo-1,2,3,4-tetrahydroquinoxaline-6-sulfonamide] |  | 100 to 1000 nM | 30 to 100 nM |  |
| Cc1cc2[nH]c(=O)c(=O)[nH]c2cc1S(=O)(=O)Nc1ccc(Br)cc1 [Compound 97, N-(4-bromophenyl)-7-methyl-2,3-dioxo-1,2,3,4-tetrahydroquinoxaline-6-sulfonamide] |  | 30 to 100 nM | 100 to 1000 nM |  |
| Cc1cc2[nH]c(=O)c(=O)[nH]c2cc1S(=O)(=O)Nc1ccc(-c2cc(CO)ccc2F)c(Cl)c1 [Compound 282, N-[3-chloro-4-[2-fluoro-5-(hydroxymethyl)phenyl]phenyl]-7-methyl-2,3-dioxo-1,4-dihydroquinoxaline-6-sulfonamide] | 30 to 100 nM | 100 to 1000 nM |  |  |
| CCO/C=C/c1ccc(NS(=O)(=O)c2cc3[nH]c(=O)c(=O)[nH]c3cc2C)cc1Cl [Compound 293, N-[3-chloro-4-[(E)-2-ethoxyvinyl]phenyl]-7-methyl-2,3-dioxo-1,4-dihydroquinoxaline-6-sulfonamide] | 100 to 1000 nM | 1000 to 6000 nM |  |  |
| COc1ccc(-c2ccc(NS(=O)(=O)c3cc4[nH]c(=O)c(=O)[nH]c4cc3C)cc2Br)cc1F [Compound 302, N-[3-bromo-4-(3-fluoro-4-methoxy-phenyl)phenyl]-7-methyl-2,3-dioxo-1,4-dihydroquinoxaline-6-sulfonamide] | < 30 nM | < 30 nM |  |  |
| CC(C)c1cc2[nH]c(=O)c(=O)[nH]c2cc1S(=O)(=O)Nc1ccc(-c2cccc(N(C)C)c2)c(Cl)c1 [Compound 109, N-(2-chloro-3′-(dimethylamino)-[1,1′-biphenyl]-4-yl)-7-isopropyl-2,3-dioxo-1,2,3,4-tetrahydroquinoxaline-6-sulfonamide] |  | 100 to 1000 nM | 100 to 1000 nM |  |
| CC(C)c1ccc(NS(=O)(=O)c2cc3[nH]c(=O)c(=O)[nH]c3cc2F)cc1 [Compound 101, 7-fluoro-N-(4-isopropylphenyl)-2,3-dioxo-1,2,3,4-tetrahydroquinoxaline-6-sulfonamide] |  | 100 to 1000 nM | 100 to 1000 nM |  |
| Cc1cc2[nH]c(=O)c(=O)[nH]c2cc1S(=O)(=O)Nc1cc(C)c(-c2ccco2)c(C)c1 [Compound 16, N-(4-(furan-2-yl)-3,5-dimethylphenyl)-7-methyl-2,3-dioxo-1,2,3,4-tetrahydroquinoxaline-6-sulfonamide] |  | < 30 nM | < 30 nM |  |
| C#Cc1cc(NS(=O)(=O)c2cc3[nH]c(=O)c(=O)[nH]c3cc2C)ccc1-c1ccc2oc(C)nc2c1 [Compound 373, N-[3-ethynyl-4-(2-methyl-1,3-benzoxazol-5-yl)phenyl]-7-methyl-2,3-dioxo-1,4-dihydroquinoxaline-6-sulfonamide] | < 30 nM | < 30 nM |  |  |
| Cc1cc2[nH]c(=O)c(=O)[nH]c2cc1S(=O)(=O)Nc1ccc(-c2ccc3c(c2)NCCO3)c(Cl)c1 [Compound 353, N-[3-chloro-4-(3,4-dihydro-2H-1,4-benzoxazin-6-yl)phenyl]-7-methyl-2,3-dioxo-1,4-dihydroquinoxaline-6-sulfonamide] | 30 to 100 nM | 100 to 1000 nM |  |  |
| O=c1[nH]c2cc(F)c(S(=O)(=O)Nc3ccc(-c4ccccc4)c(Cl)c3)cc2[nH]c1=O [Compound 40, N-(2-chloro-[1,1′-biphenyl]-4-yl)-7-fluoro-2,3-dioxo-1,2,3,4-tetrahydroquinoxaline-6-sulfonamide] |  | 100 to 1000 nM | 30 to 100 nM |  |
| Cc1cc2[nH]c(=O)c(=O)[nH]c2cc1S(=O)(=O)Nc1ccc(C2=CCCCC2)c(Br)c1 [Compound 299, N-[3-bromo-4-(cyclohexen-1-yl)phenyl]-7-methyl-2,3-dioxo-1,4-dihydroquinoxaline-6-sulfonamide] | 30 to 100 nM | 30 to 100 nM |  |  |
| Cc1cc2[nH]c(=O)c(=O)[nH]c2cc1S(=O)(=O)Nc1ccc(-c2ccc3[nH]ccc3c2)c(Cl)c1 [Compound 270, N-[3-chloro-4-(1H-indol-5-yl)phenyl]-7-methyl-2,3-dioxo-1,4-dihydroquinoxaline-6-sulfonamide] | 100 to 1000 nM | 30 to 100 nM |  |  |
| Cc1cc2[nH]c(=O)c(=O)[nH]c2cc1S(=O)(=O)Nc1ccc(-c2ccncc2)c(Cl)c1 [Compound 37, N-(3-chloro-4-(pyridin-4-yl)phenyl)-7-methyl-2,3-dioxo-1,2,3,4-tetrahydroquinoxaline-6-sulfonamide] |  | 30 to 100 nM | < 30 nM |  |
| Cc1cc2[nH]c(=O)c(=O)[nH]c2cc1S(=O)(=O)Nc1ccc(C(F)(F)F)c(Cl)c1 [Compound 56, N-(3-chloro-4-(trifluoromethyl)phenyl)-7-methyl-2,3-dioxo-1,2,3,4-tetrahydroquinoxaline-6-sulfonamide] |  | 1000 to 6000 nM | 30 to 100 nM |  |

| SMILES | EC50 [1] | EC50 ([2]; A549-LDH Assay activity) | IC50 [1] | EC50 ([2]; LDH Assay EC50) |
| --- | --- | --- | --- | --- |
| CNc1cc2[nH]c(=O)c(=O)[nH]c2cc1S(=O)(=O)Nc1ccc(OC(F)(F)F)cc1 [Compound 381, 7-(methylamino)-2,3-dioxo-N-[4-(trifluoromethoxy)phenyl]-1,4-dihydroquinoxaline-6-sulfonamide] | 100 to 1000 nM | 100 to 1000 nM |  |  |
| Cc1cc2[nH]c(=O)c(=O)[nH]c2cc1S(=O)(=O)Nc1ccc(-c2cccc(N(C)C)c2)c(Cl)c1 [Compound 4, N-(2-chloro-3′-(dimethylamino)-[1,1′-biphenyl]-4-yl)-7-methyl-2,3-dioxo-1,2,3,4-tetrahydroquinoxaline-6-sulfonamide] |  | 30 to 100 nM | < 30 nM |  |
| Cc1ccc(-c2ccc(NS(=O)(=O)c3cc4[nH]c(=O)c(=O)[nH]c4cc3C)cc2Cl)cc1Cl [Compound 286, N-[3-chloro-4-(3-chloro-4-methyl-phenyl)phenyl]-7-methyl-2,3-dioxo-1,4-dihydroquinoxaline-6-sulfonamide] | 30 to 100 nM | 100 to 1000 nM |  |  |
| O=c1[nH]c2cc(Cl)c(S(=O)(=O)Nc3ccc(-c4ccncc4)c(Cl)c3)cc2[nH]c1=O [Compound 94, 7-chloro-N-(3-chloro-4-(pyridin-4-yl)phenyl)-2,3-dioxo-1,2,3,4-tetrahydroquinoxaline-6-sulfonamide] |  | 100 to 1000 nM | 100 to 1000 nM |  |
| Cc1cc2[nH]c(=O)c(=O)[nH]c2cc1S(=O)(=O)Nc1cc(C)c(-c2sccc2C)c(C)c1 [Compound 132, N-(3,5-dimethyl-4-(3-methylthiophen-2-yl)phenyl)-7-methyl-2,3-dioxo-1,2,3,4-tetrahydroquinoxaline-6-sulfonamide] |  | 100 to 1000 nM | 100 to 1000 nM |  |
| Cc1cc2[nH]c(=O)c(=O)[nH]c2cc1S(=O)(=O)Nc1ccc(-c2ccc3c(c2)OCO3)c(Cl)c1 [Compound 247, N-[4-(1,3-benzodioxol-5-yl)-3-chloro-phenyl]-7-methyl-2,3-dioxo-1,4-dihydroquinoxaline-6-sulfonamide] | < 30 nM | 30 to 100 nM |  |  |
| C#Cc1cc(NS(=O)(=O)c2cc3[nH]c(=O)c(=O)[nH]c3cc2C)ccc1-c1ccc(C#N)cc1 [Compound 253, N-[4-(4-cyanophenyl)-3-ethynyl-phenyl]-7-methyl-2,3-dioxo-1,4-dihydroquinoxaline-6-sulfonamide] | < 30 nM | 30 to 100 nM |  |  |
| CCCc1ccc(NS(=O)(=O)c2cc3[nH]c(=O)c(=O)[nH]c3cc2Br)cc1 [Compound 41, 7-bromo-2,3-dioxo-N-(4-propylphenyl)-1,2,3,4-tetrahydroquinoxaline-6-sulfonamide] |  | 30 to 100 nM | 30 to 100 nM |  |
| Cc1cc2[nH]c(=O)c(=O)[nH]c2cc1S(=O)(=O)Nc1ccc(-c2ccc(S(C)(=O)=O)cc2F)c(Cl)c1 [Compound 262, N-[3-chloro-4-(2-fluoro-4-methylsulfonyl-phenyl)phenyl]-7-methyl-2,3-dioxo-1,4-dihydroquinoxaline-6-sulfonamide] | 1000 to 3500 nM | 1000 to 6000 nM |  |  |
| Cc1cc2[nH]c(=O)c(=O)[nH]c2cc1S(=O)(=O)Nc1ccc(-c2ccc(F)c(Cl)c2F)c(Cl)c1 [Compound 2, N-(2,3′-dichloro-2′,4′-difluoro-[1,1′-biphenyl]-4-yl)-7-methyl-2,3-dioxo-1,2,3,4-tetrahydroquinoxaline-6-sulfonamide] |  | 100 to 1000 nM | < 30 nM |  |
| Cc1ccc(-c2ccc(NS(=O)(=O)c3cc4[nH]c(=O)c(=O)[nH]c4cc3C)cc2Cl)cc1C [Compound 266, N-[3-chloro-4-(3,4-dimethylphenyl)phenyl]-7-methyl-2,3-dioxo-1,4-dihydroquinoxaline-6-sulfonamide] | 100 to 1000 nM | 100 to 1000 nM |  |  |
| Cc1cc2[nH]c(=O)c(=O)[nH]c2cc1S(=O)(=O)Nc1ccc(C2=CCOCC2)cc1 [Compound 297, N-[4-(3,6-dihydro-2H-pyran-4-yl)phenyl]-7-methyl-2,3-dioxo-1,4-dihydroquinoxaline-6-sulfonamide] | 100 to 1000 nM | 100 to 1000 nM |  |  |
| Cc1cc2[nH]c(=O)c(=O)[nH]c2cc1S(=O)(=O)Nc1ccc(-c2ccccc2Cl)c(Cl)c1 [Compound 77, N-(2,2′-dichloro-[1,1′-biphenyl]-4-yl)-7-methyl-2,3-dioxo-1,2,3,4-tetrahydroquinoxaline-6-sulfonamide] |  | 100 to 1000 nM | 100 to 1000 nM |  |
| Cc1cc2[nH]c(=O)c(=O)[nH]c2cc1S(=O)(=O)Nc1ccc(-n2ccnc2)c(Cl)c1 [Compound 285, N-(3-chloro-4-imidazol-1-yl-phenyl)-7-methyl-2,3-dioxo-1,4-dihydroquinoxaline-6-sulfonamide] | 100 to 1000 nM | 100 to 1000 nM |  |  |
| [2H]C([2H])([2H])c1cc2[nH]c(=O)c(=O)[nH]c2cc1S(=O)(=O)Nc1cnc(-c2ccc(F)cc2)c(Cl)c1 [Compound 392, N-[5-chloro-6-(4-fluorophenyl)-3-pyridyl]-2,3-dioxo-7-(trideuteriomethyl)-1,4-dihydroquinoxaline-6-sulfonamide] | 30 to 100 nM | 100 to 1000 nM |  |  |
| Cc1cc(NS(=O)(=O)c2ccc3[nH]c(=O)c(=O)[nH]c3c2)ccc1Br [drawing 471 (R^2 = H), reference compound] | 1690 nM |  |  | 346 nM |
